Here are results for two compounds from patent publication US20070110743A1, “Methods of protein production using anti-senescence compounds” (Wyeth, priority 2005, published 2007).

The subject of series [1] is human diploid fibroblasts and human fetal lung (primary cell lines). To be noted: concentration of 20 mM in culture media; cited from earlier work.
Series [2] has as its system MYO-29 cell line. The series can be described thus: Carnosine addition to 1 L fed-batch bioreactor cell culture (Example 2). Format: cell-based. To be noted: 20 mM carnosine added day 4. As for the experimental part: Five bioreactors were inoculated with 0.9×10^6 cells/ml with a 1 L working volume of a MYO-29 cell line in a serum free inoculation medium. All the bioreactors were fed 5% (v/v) of a feed medium on days 3, 5, 7, and 12 of a 14-day run. A day 10 feed of 5% (v/v) of the feed medium was added to two of the control bioreactors and one containing carnosine. The conditions of the bioreactors were held at a temperature of 37° C., a pH of 7.00, and a dissolved oxygen level at 30% air saturation.
The bioreactors were harvested on day 14 of the production run. Samples were taken throughout the run to monitor the progress of the cell culture medium. The controls performed as expected.

Series [3] concerns human or rodent transformed and neoplastic cells. To be noted: cited from earlier work.
Series [4] relates to MYO-29 cell line. The series can be described thus: Different concentrations of carnosine in 1 L bioreactor cell culture (Example 3). Format: cell-based. As for the experimental part:
Four bioreactors were inoculated with 0.4×10^6 cells/ml with a 1 L working volume of a MYO-29 cell line in a serum free inoculation medium. All the bioreactors were all fed 5% (v/v) of a feed medium on day 7 of the 14-day run. The conditions of the bioreactor were held at a temperature of 37° C., a pH of 7.00, and a dissolved oxygen level at 30% air saturation.
All cells were cultured for four days at which point the temperature was shifted in all of the bioreactors to 31° C. […] All bioreactors were harvested on day 12 of the production run. Samples were taken throughout the run to monitor the progress of the cell culture medium. The controls performed generally as expected, except one control had slightly lower daily viabilities than previously seen.

For series [5] the following is noted: addition of the chemical agent to the culture; cited from earlier work.

Molecules are shown by their SMILES.

Consider `NCCC(=O)N[C@@H](Cc1cnc[nH]1)C(=O)O` [carnosine], for which, in series [1], the lifespan of cells result is recorded as “extend the lifespan”. For the same compound, the “cumulative specific cellular productivity” value in series [2] (14-day run) is listed as “better”; in series [4] (40 mM carnosine added day 4), “higher”. For the same compound, the “daily titer at the time of harvest” value in series [2] (harvest day 14) is “higher titer”. Further, the “daily cell viability upon being harvested” value in series [2] (harvest day 14, compared to bioreactors without carnosine) is listed as “higher”; in series [4] (20 mM or 40 mM carnosine added day 4, harvest day 12, compared to two control bioreactors) it was “higher viability”. Further, in series [3] (dialyzed fetal calf serum with low molecular weight compounds removed), the cytotoxic effects result is on record as “increased the cytotoxic effects”. In addition, in series [3] (in Minimal Essential Medium (MEM), lower glucose levels), the cytotoxicity entry is “cytotoxic”. Moreover, in series [4] (20 mM or 40 mM carnosine added day 4, compared with one of the controls), the daily titer result is recorded as “similar”. Also, in series [4] (20 mM or 40 mM carnosine added day 4, versus controls), the “daily viable cell density” value is given as “fairly similar with the exception of the bioreactor with 4 mM of carnosine”.

In the case of `CCCC(=O)[O-].[Na+]` [sodium butyrate], in series [5], the “cell growth and viable cell number” value is “cell growth ceases and the viable cell number decreases”.
